Reference: patent publication US6339100B1, “Methods for inhibiting mastocytosis” (The Trustees of Columbia University in the City of New York, priority 1999, dated 2002)

How the values were obtained:
P815 cells = test: P815 cell proliferation and viability (trypan blue counting); format: cell-based, murine; details: treated daily with 10 μM
Procedure: (§1) FIG. 2: Effects of indolinone derivatives on neoplastic mast cell growth. […] Results (mean±SEM) represent averages of triplicate cultures.
(§2) KIT activity was determined by in vitro phosphorylation, as previously described (Ma et al, 1999a). The neoplastic mast cell line C2 and P815 have been previously described (Dunn et al, 1957; Lazarus et al, 1986; DeVinney and Gold, 1990), and their activating c-KIT mutations characterized (Tsujimura et al, 1994; Ma et al, 1999a). To determine cell proliferation and viability, cells from triplicate cultures were stained with trypan blue and counted in a hemocytometer. All experiments were repeated at least three times.

[1] = tested on: fibroblast growth factor receptor; details: cited from earlier work
wild-type KIT = test: Phosphorylation of wild-type KIT expressed in COS cells (anti-phosphotyrosine blot); format: cell-based; details: 5 μM, 30 min, SCF 100 ng/ml 10 min
Procedure: (§3) FIG. 1: Effects of indolinone derivatives on phosphorylation of wild-type and mutant KITs. […] The compound with the structure VII or structure VI are effective against KIT containing an activating juxtamembrane domain mutation in C2 cells.
as §2

[2] = tested on: platelet-derived growth factor receptor; details: cited from earlier work
[3] = tested on: KIT with juxtamembrane insertion mutation (C2 KIT); test: Constitutive phosphorylation of mutant KIT in C2 dog mastocytoma cells; format: cell-based; details: 5 μM
Procedure: as §3, §2
The effects of these compounds on constitutive activation of KIT mutants expressed by neoplastic mast cells were then tested. For activating juxtamembrane mutations, the C2 dog mastocytoma cell line was studied (Lazarus et al, 1986; DeVinney and Gold, 1990), in which KIT is constitutively active due to a juxtamembrane insertion mutation (Ma et al, 1999a). […] The effects of these compounds on constitutive phosphorylation of KIT bearing in the juxtamembrane region either deletion of Trp556-Lys557 or substitution of Pro for Leu575, mutations previously identified in dog mastocytomas (Ma et al, 1999a) were also examined.

C2 cells = test: C2 cell proliferation and viability (trypan blue counting); format: cell-based, dog; details: treated daily with 1 μM
Procedure: as §1, §2

insulin receptor = insulin receptor (Homo sapiens, UniProt P06213); details: cited from earlier work
[4] = molecular target: T1, KIT with substitution of Tyr for Asp814 (P815 KIT) (Mus musculus, UniProt P05532, D818Y); test: Phosphorylation of mutant KIT in P815 cells; format: cell-based, murine; details: 40 μM, 30 min
T1 construct: mutant KITs expressed in C2 and P815 cells; endogenous in cells; host or cells: P815 murine mastocytoma cells
Procedure: as §3, §2
For activating mutations in the kinase domain, the P815 murine mast cell tumor line (Dunn et al, 1957) was examined. P815 c-KIT contains a point mutation resulting in substitution of Tyr for Asp814, the equivalent position of human Asp816, which causes constitutive receptor activation (Tsujimura et al, 1994).

T1 sequence (P05532 25-975 isoform P05532-2 D814Y): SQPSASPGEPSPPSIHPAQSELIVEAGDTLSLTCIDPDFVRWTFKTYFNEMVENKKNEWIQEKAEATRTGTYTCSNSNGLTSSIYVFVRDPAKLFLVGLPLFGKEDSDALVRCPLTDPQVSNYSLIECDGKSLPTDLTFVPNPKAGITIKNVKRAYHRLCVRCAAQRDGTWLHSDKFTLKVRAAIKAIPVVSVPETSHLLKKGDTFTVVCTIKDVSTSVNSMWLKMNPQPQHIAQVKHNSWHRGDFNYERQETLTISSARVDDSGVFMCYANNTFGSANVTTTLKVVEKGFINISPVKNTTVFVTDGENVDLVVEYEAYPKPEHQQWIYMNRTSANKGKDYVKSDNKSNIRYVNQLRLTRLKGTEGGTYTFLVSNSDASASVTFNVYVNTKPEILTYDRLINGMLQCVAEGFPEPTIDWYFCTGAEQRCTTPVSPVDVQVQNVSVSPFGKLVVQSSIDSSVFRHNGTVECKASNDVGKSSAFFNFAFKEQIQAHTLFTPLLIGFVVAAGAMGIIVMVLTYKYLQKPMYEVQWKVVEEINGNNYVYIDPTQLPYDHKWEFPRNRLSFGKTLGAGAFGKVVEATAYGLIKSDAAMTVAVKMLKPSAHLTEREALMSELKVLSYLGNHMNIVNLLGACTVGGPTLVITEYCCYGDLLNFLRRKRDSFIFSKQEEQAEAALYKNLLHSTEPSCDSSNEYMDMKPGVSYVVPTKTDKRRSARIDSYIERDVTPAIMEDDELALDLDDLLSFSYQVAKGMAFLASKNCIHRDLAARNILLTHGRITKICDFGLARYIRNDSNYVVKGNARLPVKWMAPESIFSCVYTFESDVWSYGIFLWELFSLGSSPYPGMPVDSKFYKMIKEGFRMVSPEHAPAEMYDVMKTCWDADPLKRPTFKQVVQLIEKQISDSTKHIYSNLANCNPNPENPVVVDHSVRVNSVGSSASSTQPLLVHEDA
Sequence of insulin receptor (P06213 28-1382, species assumed): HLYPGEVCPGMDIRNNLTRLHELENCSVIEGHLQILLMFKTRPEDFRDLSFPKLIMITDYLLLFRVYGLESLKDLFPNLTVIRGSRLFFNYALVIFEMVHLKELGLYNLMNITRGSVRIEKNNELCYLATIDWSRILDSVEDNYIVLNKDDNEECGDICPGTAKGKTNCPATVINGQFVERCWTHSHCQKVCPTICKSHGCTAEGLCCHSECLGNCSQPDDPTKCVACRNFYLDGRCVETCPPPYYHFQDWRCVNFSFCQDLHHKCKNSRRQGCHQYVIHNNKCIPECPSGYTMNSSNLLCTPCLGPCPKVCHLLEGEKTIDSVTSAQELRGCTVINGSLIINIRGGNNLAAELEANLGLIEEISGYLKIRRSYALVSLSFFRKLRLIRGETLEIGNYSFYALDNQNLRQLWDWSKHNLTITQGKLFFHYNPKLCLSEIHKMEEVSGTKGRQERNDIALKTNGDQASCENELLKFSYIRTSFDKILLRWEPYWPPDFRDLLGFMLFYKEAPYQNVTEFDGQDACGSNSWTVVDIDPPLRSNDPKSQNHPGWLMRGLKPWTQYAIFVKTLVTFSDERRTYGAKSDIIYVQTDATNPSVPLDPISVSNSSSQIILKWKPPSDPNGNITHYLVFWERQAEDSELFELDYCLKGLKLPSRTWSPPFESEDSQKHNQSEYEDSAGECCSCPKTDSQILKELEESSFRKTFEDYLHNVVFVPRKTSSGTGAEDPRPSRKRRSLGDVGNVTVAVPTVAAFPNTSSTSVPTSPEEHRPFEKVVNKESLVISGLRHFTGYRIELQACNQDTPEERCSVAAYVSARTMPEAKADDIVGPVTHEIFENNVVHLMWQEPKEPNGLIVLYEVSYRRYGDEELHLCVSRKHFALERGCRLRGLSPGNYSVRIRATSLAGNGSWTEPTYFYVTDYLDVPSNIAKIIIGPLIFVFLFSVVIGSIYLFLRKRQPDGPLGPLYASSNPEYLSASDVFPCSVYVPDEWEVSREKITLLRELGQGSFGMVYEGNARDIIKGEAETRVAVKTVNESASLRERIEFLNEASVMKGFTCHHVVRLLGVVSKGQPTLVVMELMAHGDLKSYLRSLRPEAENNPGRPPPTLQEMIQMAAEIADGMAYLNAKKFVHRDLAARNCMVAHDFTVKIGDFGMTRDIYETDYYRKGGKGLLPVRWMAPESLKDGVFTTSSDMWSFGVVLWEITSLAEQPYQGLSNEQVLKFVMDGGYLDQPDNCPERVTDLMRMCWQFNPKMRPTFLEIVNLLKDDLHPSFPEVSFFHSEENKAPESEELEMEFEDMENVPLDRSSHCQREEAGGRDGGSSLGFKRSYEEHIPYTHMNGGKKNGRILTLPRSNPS

## O=CN1CCN(c2ccc(/C=C3/C(=O)Nc4ccccc43)cc2)CC1 [structure VII]
P815 cells
  effect on P815 cell proliferation: killed
[1]
  inhibition of fibroblast growth factor receptor: effective
wild-type KIT
  effect on tyrosine phosphorylation of the wild-type receptor: substantially reduce
[2]
  inhibition of platelet-derived growth factor receptor: effective
[3]
  reduction of the constitutive C2 KIT phosphorylation: approximately 50%
C2 cells
  effect on C2 cell proliferation: killed
Insulin receptor
  inhibition of insulin receptor: effective
[4]
  inhibition of phosphorylation of the P815 KIT mutant: not effectively inhibiting
